This note sets out measurements from PubChem BioAssay (NCI).

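96-well plates; 48 h exposure; 5 concentrations. Endpoints by linear interpolation between flanking doses. Not reached: highest tested concentration assigned. The concentration for 50% growth inhibition is given as GI50. The concentration for full growth arrest is given as TGI.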

Test systems include CAKI-1 renal; 786-0 renal; MDA-MB-231 breast; IGROV1 ovarian; RXF 393 renal; BT-549 breast; SNB-75 CNS; EKVX NSCLC; SF-539 CNS; SF-268 CNS.
Experiment in all cases: inhibition of tumour cell growth, NCI panel, 48 h

With `O=C1/C(=C\c2coc3ccccc3c2=O)c2ccccc2N1c1c(Cl)cccc1Cl`, the GI50 with CAKI-1 renal is 2.45 µM; with 786-0 renal it was 3.1 µM; in the test with MDA-MB-231 breast, 3.88 µM; with IGROV1 ovarian, 1.62 µM; in the test with RXF 393 renal it was 1.86 µM; in the test on BT-549 breast, 2.83 µM. The GI50 in the test on SNB-75 CNS was 1.91 µM; in the test with EKVX NSCLC, 2.82 µM; in the test with SF-539 CNS it was 3.06 µM; in the test on SF-268 CNS, 3.41 µM. Further, the TGI with CAKI-1 renal was greater than 100 µM; with 786-0 renal, 33.7 µM; in the test on MDA-MB-231 breast, greater than 100 µM; in the test on IGROV1 ovarian, 5.91 µM; in the test with RXF 393 renal, 5.11 µM; in the test with BT-549 breast it was 35.3 µM. The TGI is 37.4 µM in the test on SNB-75 CNS, greater than 100 µM in the test on EKVX NSCLC, greater than 100 µM with SF-539 CNS and greater than 100 µM with SF-268 CNS.

As for `Cc1ccccc1N=Nc1c(O)[nH]c2ccccc12`, the TGI in the test on CAKI-1 renal, in the test on 786-0 renal, in the test with MDA-MB-231 breast, in the test on IGROV1 ovarian, with RXF 393 renal and in the test on BT-549 breast was greater than 100 µM throughout. The TGI in the test on SNB-75 CNS, in the test with EKVX NSCLC and in the test with SF-268 CNS was greater than 100 µM each time.

Turning to `CCCN(CCC)CCCNC(=O)c1cc2c(-c3ccc(OC)c(OC)c3)nn(C)c2s1`, the GI50 in the test on CAKI-1 renal was 27.1 µM; in the test with 786-0 renal, 17.9 µM; with MDA-MB-231 breast, 18.8 µM; in the test on IGROV1 ovarian, 43.3 µM; in the test with RXF 393 renal, 10.7 µM; in the test with BT-549 breast, 20.9 µM. Moreover, the GI50 with SNB-75 CNS was 12.3 µM; in the test on EKVX NSCLC, 71.7 µM; in the test on SF-539 CNS, 16 µM; in the test on SF-268 CNS, 31.1 µM. Also, the TGI in the test on CAKI-1 renal is greater than 100 µM; in the test on 786-0 renal, 91 µM; in the test with MDA-MB-231 breast, 41.3 µM; with IGROV1 ovarian, greater than 100 µM; in the test with RXF 393 renal it was 31.1 µM; in the test with BT-549 breast it was 87 µM. Also, the TGI in the test on SNB-75 CNS is 40.5 µM; with EKVX NSCLC, greater than 100 µM; in the test on SF-539 CNS, 31.1 µM; in the test with SF-268 CNS, greater than 100 µM.

On to `C[C@H]1CC[C@@H]2[C@@H](C)[C@H]3[C@H](C[C@H]4[C@@H]5CC=C6C[C@@H](O)CC[C@]6(C)[C@H]5C[C@H](O)[C@]34C)N2C1`, for which the TGI in the test with CAKI-1 renal, in the test with 786-0 renal, in the test on MDA-MB-231 breast, in the test on IGROV1 ovarian, with RXF 393 renal and with BT-549 breast was greater than 100 µM each time. The TGI in the test with SNB-75 CNS, with EKVX NSCLC, in the test on SF-539 CNS and in the test with SF-268 CNS was greater than 100 µM throughout.

In the case of `N#Cc1cccc(NC(=O)c2oc3ccccc3c2-c2cnn(-c3ccccc3)c2)c1`, the GI50 in the test on CAKI-1 renal is greater than 500 µM; in the test with 786-0 renal it was 221 µM; with MDA-MB-231 breast, 90 µM; in the test on IGROV1 ovarian, 120 µM; in the test on RXF 393 renal, 185 µM; in the test on BT-549 breast it was 167 µM. Also, the GI50 in the test with SNB-75 CNS is 82 µM; in the test with EKVX NSCLC, greater than 500 µM; in the test with SF-539 CNS, 137 µM; with SF-268 CNS, 304 µM. The TGI in the test on CAKI-1 renal, in the test on 786-0 renal, in the test with MDA-MB-231 breast, with IGROV1 ovarian, in the test with RXF 393 renal and with BT-549 breast was greater than 500 µM throughout. Further, the TGI in the test on SNB-75 CNS is 493 µM; with EKVX NSCLC it was greater than 500 µM; with SF-539 CNS it was greater than 500 µM; in the test with SF-268 CNS, greater than 500 µM.

In the case of `C#COc1cccc(Nc2ncnc3ncc(NC(=O)CCl)cc23)c1`, the GI50 with CAKI-1 renal was greater than 15.2 µM; in the test with 786-0 renal, 2.71 µM; in the test on MDA-MB-231 breast, greater than 27.3 µM; with RXF 393 renal, greater than 62.5 µM; in the test with BT-549 breast, greater than 62.5 µM; in the test on SNB-75 CNS it was greater than 60.1 µM. In addition, the GI50 in the test with EKVX NSCLC is greater than 62.5 µM; in the test with SF-539 CNS, greater than 21.8 µM; with SF-268 CNS it was greater than 22.3 µM. Further, the TGI is greater than 62.5 µM with CAKI-1 renal; greater than 62.5 µM in the test on 786-0 renal; greater than 62.5 µM with MDA-MB-231 breast; greater than 26.1 µM in the test with IGROV1 ovarian; greater than 62.5 µM with RXF 393 renal; greater than 62.5 µM in the test on BT-549 breast. Further, the TGI is greater than 62.5 µM with SNB-75 CNS, greater than 62.5 µM in the test on EKVX NSCLC, greater than 53.2 µM in the test with SF-539 CNS and greater than 62.5 µM with SF-268 CNS.

In the case of `Clc1ccc(-c2nn3ncccc3c2-c2ccnc(Nc3ccccc3)n2)cc1`, the GI50 in the test with CAKI-1 renal is 2.5 µM; with 786-0 renal, 8.2 µM; in the test with MDA-MB-231 breast, 13.4 µM; with IGROV1 ovarian, 2.29 µM; in the test with RXF 393 renal, 6.56 µM; in the test on BT-549 breast, 10.7 µM. In addition, the GI50 is 6.31 µM in the test with SNB-75 CNS, 2.94 µM in the test on EKVX NSCLC, greater than 14.2 µM in the test on SF-539 CNS and 11.5 µM with SF-268 CNS. Besides, the TGI is greater than 22.2 µM with CAKI-1 renal; greater than 25 µM with 786-0 renal; greater than 25 µM in the test with MDA-MB-231 breast; greater than 22 µM in the test on IGROV1 ovarian; greater than 25 µM in the test on RXF 393 renal; greater than 25 µM in the test on BT-549 breast. Further, the TGI in the test on SNB-75 CNS, with EKVX NSCLC, with SF-539 CNS and with SF-268 CNS was greater than 25 µM throughout.

Regarding `Nc1ccccc1NC(=O)c1ccc(CN2CCC/C(=C\c3cccc(Cl)c3)C2=O)cc1`, the GI50 with 786-0 renal is 0.366 µM; in the test on MDA-MB-231 breast, 0.584 µM; in the test on IGROV1 ovarian, 0.337 µM; in the test with RXF 393 renal it was 0.277 µM; in the test with BT-549 breast it was 1.4 µM; in the test on SNB-75 CNS, 0.284 µM. The GI50 in the test with EKVX NSCLC was 0.567 µM; with SF-539 CNS, 0.695 µM; in the test with SF-268 CNS, 1.41 µM. The TGI in the test with 786-0 renal worked out at 2.17 µM; with MDA-MB-231 breast it was 7.93 µM; with IGROV1 ovarian, 13.6 µM; in the test on RXF 393 renal, 5.23 µM; with BT-549 breast, 5.52 µM; in the test on SNB-75 CNS it was 9.04 µM. Also, the TGI was greater than 100 µM with EKVX NSCLC, 5.33 µM in the test on SF-539 CNS and 6.74 µM with SF-268 CNS.
